Active and inactive are the calls of the source. The rule behind the calls is not given here.
What was measured:
[1] = molecular target: RAC-alpha serine/threonine-protein kinase (Homo sapiens, UniProt P31749); assay: Inhibition of recombinant AKT (unknown origin) using peptide as substrate
[2] = molecular target: Hepatocyte growth factor receptor (Homo sapiens, UniProt P08581); assay: Inhibition of recombinant c-Met autophosphorylation (unknown origin)
[3] = molecular target: MAP kinase-activated protein kinase 2 (Homo sapiens, UniProt P49137); assay: Inhibition of recombinant MK2 (unknown origin) using peptide as substrate
[4] = molecular target: Proto-oncogene tyrosine-protein kinase Src (Homo sapiens, UniProt P12931); assay: Inhibition of recombinant Src (unknown origin) using peptide as substrate
[5] = tested on: NIH3T3; assay: Antiproliferative activity against mouse 3T3 cells transfected with HER-2 oncogene measured after 2 days by sulforhodamine B assay; type: functional, cell-based; conditions: NIH3T3, 48 h
[6] = tested on: BT-474; assay: Antiproliferative activity against human BT-474 cells measured after 6 days by sulforhodamine B assay; type: functional, cell-based; conditions: BT-474, 144 h
[7] = tested on: A-431; assay: Antiproliferative activity against human A-431 cells measured after 2 days by sulforhodamine B assay; type: functional, cell-based; conditions: A-431, 48 h
[8] = molecular target: Receptor tyrosine-protein kinase erbB-2 (Homo sapiens, UniProt P04626); assay: Inhibition of [14C]HKI-272 binding to HER2 in human BT-474 cells at 5 uM measured after 15 mins by fluorography; type: cell-based
[9] = tested on: BT-474; assay: Cell cycle arrest in human BT-474 cells assessed as accumulation of cells at Sub-G1 phase at 0.2 nM measured after 12 to 16 hrs by propidium iodide staining based flow cytometry (reference value: 8%); type: functional; conditions: time 12-16 hrs
[10] = tested on: BT-474; assay: Cell cycle arrest in human BT-474 cells assessed as accumulation of cells at G0-G1 phase at 2 nM measured after 12 to 16 hrs by propidium iodide staining based flow cytometry (reference value: 61%); type: functional; conditions: time 12-16 hrs
[11] = tested on: BT-474; assay: Cell cycle arrest in human BT-474 cells assessed as accumulation of cells at S phase at 0.2 nM measured after 12 to 16 hrs by propidium iodide staining based flow cytometry (reference value: 21%); type: functional; conditions: time 12-16 hrs
[12] = tested on: BT-474; assay: Cell cycle arrest in human BT-474 cells assessed as accumulation of cells at S phase at 1 nM measured after 12 to 16 hrs by propidium iodide staining based flow cytometry (reference value: 21%); type: functional; conditions: time 12-16 hrs
[13] = tested on: BT-474; assay: Cell cycle arrest in human BT-474 cells assessed as accumulation of cells at S phase at 0.4 nM measured after 12 to 16 hrs by BrdUrd uptake assay (reference value: 26%); type: functional; conditions: time 12-16 hrs
[14] = tested on: NIH3T3; assay: Antitumor activity against mouse 3T3 cells transfected with HER-2 oncogene implanted in athymic nude mouse assessed as tumor growth inhibition at 10 mg/kg, po administered daily for 10 days via gavage and measured on day 14 relative to control; type: functional; conditions: NIH3T3, 336 h, time 14 day, read-out: TGI
[15] = tested on: BT-474; assay: Antitumor activity against human BT-474 cells xenografted in athymic nude mouse assessed as tumor growth inhibition at 10 mg/kg, po administered daily for 20 days via gavage and measured on day 28 relative to control; type: functional; conditions: BT-474, 672 h, time 28 day, read-out: TGI
[16] = In vivo inhibition of HER2 autophosphorylation in human BT-474 cells xenografted athymic nude mouse at 40 mg/kg, po administered as single dose via gavage measured after 6 hrs by immunoblot analysis relative to control; type: functional
[17] = Toxicity in human BT-474 cells xenografted athymic nude mouse assessed as body weight loss at 10 to 40 mg/kg, po administered daily via gavage for 20 days; type: organism-based; conditions: in vivo, 480 h, dose 10-40 mg/kg, time 20 day

Sequence of Hepatocyte growth factor receptor (P08581 whole entry): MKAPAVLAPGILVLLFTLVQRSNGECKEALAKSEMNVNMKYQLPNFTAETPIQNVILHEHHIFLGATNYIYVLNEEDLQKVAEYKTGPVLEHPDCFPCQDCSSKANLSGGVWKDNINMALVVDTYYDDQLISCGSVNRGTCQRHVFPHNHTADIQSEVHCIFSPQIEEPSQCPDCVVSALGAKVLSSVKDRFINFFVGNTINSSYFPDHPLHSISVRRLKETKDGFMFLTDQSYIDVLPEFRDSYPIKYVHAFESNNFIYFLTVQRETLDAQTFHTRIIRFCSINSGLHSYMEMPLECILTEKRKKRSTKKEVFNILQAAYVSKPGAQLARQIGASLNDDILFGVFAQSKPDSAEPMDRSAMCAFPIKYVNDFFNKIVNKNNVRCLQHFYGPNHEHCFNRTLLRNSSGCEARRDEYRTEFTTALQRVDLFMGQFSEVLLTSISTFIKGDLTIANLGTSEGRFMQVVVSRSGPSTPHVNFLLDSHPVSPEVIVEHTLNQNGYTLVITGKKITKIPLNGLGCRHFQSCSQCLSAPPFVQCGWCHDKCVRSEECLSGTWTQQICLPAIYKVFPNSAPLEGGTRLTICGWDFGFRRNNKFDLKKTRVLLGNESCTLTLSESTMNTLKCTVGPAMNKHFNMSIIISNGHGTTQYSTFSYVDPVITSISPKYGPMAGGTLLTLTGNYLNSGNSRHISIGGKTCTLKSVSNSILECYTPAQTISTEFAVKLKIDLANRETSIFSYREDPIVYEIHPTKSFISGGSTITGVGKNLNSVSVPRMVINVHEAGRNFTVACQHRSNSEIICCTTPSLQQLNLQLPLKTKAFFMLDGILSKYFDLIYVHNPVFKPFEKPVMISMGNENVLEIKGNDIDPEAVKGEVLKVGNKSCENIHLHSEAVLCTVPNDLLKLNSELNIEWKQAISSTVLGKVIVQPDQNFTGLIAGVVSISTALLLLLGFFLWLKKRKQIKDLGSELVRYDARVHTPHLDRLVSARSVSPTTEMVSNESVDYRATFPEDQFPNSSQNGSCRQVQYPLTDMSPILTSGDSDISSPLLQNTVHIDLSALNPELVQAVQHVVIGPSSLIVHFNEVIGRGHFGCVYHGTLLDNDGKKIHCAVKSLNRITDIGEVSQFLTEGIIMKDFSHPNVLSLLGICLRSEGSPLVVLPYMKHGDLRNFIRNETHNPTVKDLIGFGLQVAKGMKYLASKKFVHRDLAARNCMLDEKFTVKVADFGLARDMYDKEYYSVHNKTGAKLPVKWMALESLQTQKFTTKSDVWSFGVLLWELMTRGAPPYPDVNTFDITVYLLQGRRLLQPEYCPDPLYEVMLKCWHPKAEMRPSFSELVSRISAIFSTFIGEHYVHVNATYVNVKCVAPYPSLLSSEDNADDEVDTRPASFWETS
Sequence of Proto-oncogene tyrosine-protein kinase Src (P12931 2-536 limits assumed): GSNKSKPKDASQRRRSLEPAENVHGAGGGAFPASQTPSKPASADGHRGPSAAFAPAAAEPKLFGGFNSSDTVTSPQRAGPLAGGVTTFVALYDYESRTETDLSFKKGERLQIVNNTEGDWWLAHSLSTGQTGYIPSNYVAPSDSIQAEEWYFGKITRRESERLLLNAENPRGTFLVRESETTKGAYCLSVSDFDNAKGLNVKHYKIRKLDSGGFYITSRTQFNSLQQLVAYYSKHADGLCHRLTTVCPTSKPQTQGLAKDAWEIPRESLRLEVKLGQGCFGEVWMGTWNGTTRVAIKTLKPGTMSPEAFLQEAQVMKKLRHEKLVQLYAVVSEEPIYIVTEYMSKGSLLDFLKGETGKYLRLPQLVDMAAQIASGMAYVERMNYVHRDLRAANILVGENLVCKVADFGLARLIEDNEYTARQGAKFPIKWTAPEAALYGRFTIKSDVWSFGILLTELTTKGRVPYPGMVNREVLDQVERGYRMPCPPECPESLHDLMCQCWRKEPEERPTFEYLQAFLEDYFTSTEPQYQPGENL
Sequence of RAC-alpha serine/threonine-protein kinase (P31749 whole entry): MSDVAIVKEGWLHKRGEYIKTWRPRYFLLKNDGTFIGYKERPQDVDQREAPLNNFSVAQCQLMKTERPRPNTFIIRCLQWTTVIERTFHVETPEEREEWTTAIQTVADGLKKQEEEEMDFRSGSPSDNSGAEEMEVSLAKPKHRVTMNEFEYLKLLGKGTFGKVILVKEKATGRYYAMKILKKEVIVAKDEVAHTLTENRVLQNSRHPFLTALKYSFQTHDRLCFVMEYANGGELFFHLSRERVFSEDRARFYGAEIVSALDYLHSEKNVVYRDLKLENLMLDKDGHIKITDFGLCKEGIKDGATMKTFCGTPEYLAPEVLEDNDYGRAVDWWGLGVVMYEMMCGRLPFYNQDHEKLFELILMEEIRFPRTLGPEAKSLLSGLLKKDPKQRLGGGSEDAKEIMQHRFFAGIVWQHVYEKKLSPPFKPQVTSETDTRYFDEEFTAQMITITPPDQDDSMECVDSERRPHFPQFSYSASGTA
Sequence of MAP kinase-activated protein kinase 2 (P49137 whole entry): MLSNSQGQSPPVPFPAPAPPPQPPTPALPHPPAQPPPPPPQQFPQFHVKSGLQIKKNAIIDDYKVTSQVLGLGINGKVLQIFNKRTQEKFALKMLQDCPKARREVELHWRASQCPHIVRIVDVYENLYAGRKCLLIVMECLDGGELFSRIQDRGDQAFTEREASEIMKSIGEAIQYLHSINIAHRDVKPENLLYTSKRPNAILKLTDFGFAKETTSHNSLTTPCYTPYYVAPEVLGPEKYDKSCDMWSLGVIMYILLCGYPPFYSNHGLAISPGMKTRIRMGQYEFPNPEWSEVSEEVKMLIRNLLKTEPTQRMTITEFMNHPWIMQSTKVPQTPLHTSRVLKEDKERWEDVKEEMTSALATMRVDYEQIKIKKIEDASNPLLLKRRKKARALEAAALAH
Sequence of Receptor tyrosine-protein kinase erbB-2 (P04626 whole entry): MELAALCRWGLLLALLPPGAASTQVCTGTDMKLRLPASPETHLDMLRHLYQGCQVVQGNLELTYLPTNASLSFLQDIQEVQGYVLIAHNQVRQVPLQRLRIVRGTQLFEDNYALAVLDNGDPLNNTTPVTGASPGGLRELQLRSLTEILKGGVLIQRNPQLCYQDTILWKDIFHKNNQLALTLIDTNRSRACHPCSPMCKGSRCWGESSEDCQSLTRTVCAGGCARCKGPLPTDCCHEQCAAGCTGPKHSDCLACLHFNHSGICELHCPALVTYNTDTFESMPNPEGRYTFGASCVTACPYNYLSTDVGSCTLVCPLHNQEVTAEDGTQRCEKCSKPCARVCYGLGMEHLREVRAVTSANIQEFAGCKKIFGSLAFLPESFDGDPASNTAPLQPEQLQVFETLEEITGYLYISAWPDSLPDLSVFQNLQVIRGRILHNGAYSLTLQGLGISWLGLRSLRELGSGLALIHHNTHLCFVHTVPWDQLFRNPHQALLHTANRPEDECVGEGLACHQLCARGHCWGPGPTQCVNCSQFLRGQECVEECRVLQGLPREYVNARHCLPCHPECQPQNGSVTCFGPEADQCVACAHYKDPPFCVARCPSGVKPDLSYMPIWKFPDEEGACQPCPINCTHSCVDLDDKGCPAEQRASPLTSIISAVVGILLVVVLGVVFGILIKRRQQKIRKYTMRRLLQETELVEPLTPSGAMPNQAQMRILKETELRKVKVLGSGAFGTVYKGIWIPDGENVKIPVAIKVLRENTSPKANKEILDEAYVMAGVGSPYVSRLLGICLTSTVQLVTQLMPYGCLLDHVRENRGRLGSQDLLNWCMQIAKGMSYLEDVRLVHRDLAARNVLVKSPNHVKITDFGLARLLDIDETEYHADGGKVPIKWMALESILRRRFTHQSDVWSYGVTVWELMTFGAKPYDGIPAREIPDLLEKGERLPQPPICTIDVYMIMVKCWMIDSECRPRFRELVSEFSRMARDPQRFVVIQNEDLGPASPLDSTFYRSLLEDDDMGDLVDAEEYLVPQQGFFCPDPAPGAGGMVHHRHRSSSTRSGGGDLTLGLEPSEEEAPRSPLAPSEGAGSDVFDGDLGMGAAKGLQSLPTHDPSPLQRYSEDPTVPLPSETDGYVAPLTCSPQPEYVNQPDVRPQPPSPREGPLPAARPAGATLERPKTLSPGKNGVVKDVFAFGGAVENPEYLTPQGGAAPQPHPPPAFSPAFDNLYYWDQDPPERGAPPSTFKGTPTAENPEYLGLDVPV

IC50 [1]: > 20 µM
IC50 [2]: > 35 µM
IC50 [3]: > 45 µM
IC50 [4]: 1.4 µM
IC50 [6]: 0.002 µM
IC50 [7]: 0.081 µM
inhibition [8]: Active
SMILES: COc1cc2ncc(C#N)c(Nc3ccc(OCc4ccccn4)c(Cl)c3)c2cc1NC(=O)/C=C/CN(C)C
IC50 [5]: 0.003 µM
Activity [9]: 9%
Activity [10]: 66%
Activity [11]: 16%
Activity [12]: 10%
Activity [13]: 14%
inhibition in vivo at 10 mg/kg [14]: 34%
inhibition in vivo at 10 mg/kg [15]: 67%
inhibition in vivo at 40 mg/kg [16]: 97%
Activity [17]: Non-Toxic

Reference: ChEMBL document CHEMBL5661967, “Antitumor activity of HKI-272, an orally active, irreversible inhibitor of the HER-2 tyrosine kinase” (Cancer Res, 2004)
